These results are taken from patent publication US12583818B2 (DAEGU-GYEONGBUK MEDICAL INNOVATION FOUNDATION, priority 2020, dated 2026).

The target in the assay is T1, Pin1 (Homo sapiens, UniProt Q13526).
T1 construct: purchased Anaspec
Put plainly: Evaluation of Pin1 enzyme inhibitory activity (Sensolyte Green Pin1 assay kit). It is filed as biochemical. As to the method:
In order to evaluate the Pin1 enzyme inhibitory activity of the compound represented by formula 1 according to the present invention, the following experiment was performed, and the results are shown in Table 2 below.
The enzyme activity of Pin1 protein was measured using a sensolyte Green Pin1 assay kit of Anaspec. The substrate was diluted in a buffer at a ratio of 1:100 to prepare a concentration of 1 μM, and the protein was diluted in a buffer at a ratio of 1:20 to prepare a concentration of 50 μg/ml. In addition, a developing solution was prepared by diluting thereof in a buffer at a ratio of 1:100.
The compound prepared in each example was diluted with DMSO and prepared at a concentration of 100 μM, 10 μM, 1 μM or 0.1 μM using a buffer. After sequentially adding 10 μl of the compound prepared in each Example diluted to four concentrations according to the above method, 10 μl of Pin1 protein, and 30 μl of the developing solution to each well of a black 96-well plate, […]. Finally, 50 μl of the substrate was added to each well of the plate, and the enzyme reaction was carried out after shaking the plate for 10 seconds.
Then, the plate was incubated for 2 hours at room temperature in an environment without light, and the fluorescence values at 490 nm/520 nm wavelength were measured using a device of Synergy Neo […]. The results are shown in Table 2 below by dividing the grades of A to D for each concentration (μM) at which the Pin1 enzyme activity is inhibited.

[1] abbreviates: concentration at which the Pin1 enzyme activity is inhibited, 2 hours at room temperature, fluorescence 490 nm/520 nm, read-out: Pin 1 inhibition.

Like-named read-outs stand apart in the source and are kept apart here.

T1 sequence (Q13526 whole entry): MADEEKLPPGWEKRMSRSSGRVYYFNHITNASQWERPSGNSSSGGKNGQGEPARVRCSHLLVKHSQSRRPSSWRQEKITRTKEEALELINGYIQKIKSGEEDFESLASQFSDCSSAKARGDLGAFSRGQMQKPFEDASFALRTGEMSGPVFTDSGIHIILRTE

`COc1ccc2[nH]cc(CCNS(=O)(=O)c3ccc(OCCCN4CCN(C)CC4)cc3)c2c1` [Example 49, N-(2-(5-methoxy-1H-indol-3-yl)ethyl)-4-(3-(4-methylpiperazin-1-yl)propoxy)benzenesulfonamide]: the IC50 under setting [1] fell in the range of 10 to 100 µM.
For `CN1CCN(CCCOc2ccc(S(=O)(=O)NCCc3c[nH]c4ccccc34)cc2)CC1` [Example 50, N-(2-(1H-indol-3-yl)ethyl)-4-(3-(4-methylpiperazin-1-yl)propoxy)benzenesulfonamide], the IC50 under setting [1] was in the range of 10 to 100 µM.
For `CC(C)N1CCN(CCCOc2ccc(S(=O)(=O)NCCc3c[nH]c4ccccc34)cc2)CC1` [Example 51, N-(2-(1H-indol-3-yl)ethyl)-4-(3-(4-isopropylpiperazin-1-yl)propoxy)benzenesulfonamide], the IC50 under setting [1] was above 100 µM.
`CN1CCN(CCOc2ccc(S(=O)(=O)NCCCc3c[nH]c4ccccc34)cc2)CC1` [Example 52, N-(3-(1H-indol-3-yl)propyl)-4-(2-(4-methylpiperazin-1-yl)ethoxy)benzenesulfonamide]: the IC50 under setting [1] was 10 to 100 µM.
Still for that read-out and setting: the figure for `CC(C)N1CCN(CCOc2ccc(S(=O)(=O)NCCCc3c[nH]c4ccccc34)cc2)CC1` [Example 53, N-(3-(1H-indol-3-yl)propyl)-4-(2-(4-isopropylpiperazin-1-yl)ethoxy)benzenesulfonamide] is 10 to 100 µM.
For `Cc1[nH]c2ccccc2c1CCNS(=O)(=O)c1ccc(OCCCN2CCN(C)CC2)cc1` [Example 54, N-(2-(2-methyl-1H-indol-3-yl)ethyl)-4-(3-(4-methylpiperazin-1-yl)propoxy)benzenesulfonamide], the IC50 under setting [1] lay within 10 to 100 µM.
Still for that read-out and setting: the figure for `CN1CCN(CCCOc2ccc(S(=O)(=O)NCCCc3c[nH]c4ccccc34)cc2F)CC1` [Example 62, N-(3-(1H-indol-3-yl)propyl)-3-fluoro-4-(3-(4-methylpiperazin-1-yl)propoxy)benzenesulfonamide] is 1 to 10 µM; for `CCN1CCN(CCCOc2ccc(S(=O)(=O)NCCCc3c[nH]c4ccc(F)cc34)cc2)CC1` [Example 63, 4-(3-(4-ethylpiperazin-1-yl)propoxy)-N-(3-(5-fluoro-1H-indol-3-yl)propyl)benzenesulfonamide] it is 1 to 10 µM.
Same read-out and setting: the figure for `COc1ccc2[nH]cc(C3CCN(S(=O)(=O)c4ccc(OCCCN5CCN(C)CC5)cc4)CC3)c2c1` [Example 64, 5-methoxy-3-(1-((4-(3-(4-methylpiperazin-1-yl)propoxy)phenyl)sulfonyl)piperidin-4-yl)-1H-indole] is 10 to 100 µM; for `Cc1ccc2[nH]cc(C3CCN(S(=O)(=O)c4ccc(OCCCN5CCN(C)CC5)cc4)CC3)c2c1` [Example 65, 5-methyl-3-(1-((4-(3-(4-methylpiperazin-1-yl)propoxy)phenyl)sulfonyl)piperidin-4-yl)-1H-indole] it is 10 to 100 µM.
Consider `Cc1ccc2[nH]cc(CCCNS(=O)(=O)c3ccc(OCCCN4CCN(C)CC4)cc3)c2c1` [Example 67, N-(3-(5-methyl-1H-indol-3-yl)propyl)-4-(3-(4-methylpiperazin-1-yl)propoxy)benzenesulfonamide], for which, under setting [1], the IC50 lay within 1 to 10 µM.
Consider `COc1ccc2[nH]cc(CCCNS(=O)(=O)c3ccc(OCCCN4CCN(C)CC4)cc3)c2c1` [Example 68, N-(3-(5-methoxy-1H-indol-3-yl)propyl)-4-(3-(4-methylpiperazin-1-yl)propoxy)benzenesulfonamide], for which the IC50 under setting [1] fell in the range of 1 to 10 µM.
The same measure, in the same setting: the figure for `O=S(=O)(NCCCc1c[nH]c2ccccc12)c1ccc(OCCCN2CCC(O)CC2)cc1` [Example 69, N-(3-(1H-indol-3-yl)propyl)-4-(3-(4-hydroxypiperidin-1-yl)propoxy)benzenesulfonamide] is 1 to 10 µM; for `CN1CCN(CCCOc2ccc(S(=O)(=O)N3CCC(c4c[nH]c5ccc(F)cc45)CC3)cc2)CC1` [Example 71, 5-fluoro-3-(1-((4-(3-(4-methylpiperazin-1-yl)propoxy)phenyl)sulfonyl)piperidin-4-yl)-1H-indole] it is 10 to 100 µM.
Same read-out and setting: the figure for `C[C@@H]1CN(CCCOc2ccc(S(=O)(=O)NCCCc3c[nH]c4ccc(F)cc34)cc2)C[C@H](C)N1` [Example 72, 4-(3-((3S,5R)-3,5-dimethylpiperazine-1-yl)propoxy)-N-(3-(5-fluoro-1H-indole-3-yl)propyl)benzenesulfonamide] is 10 to 100 µM; for `CC(C)C(=O)N1CCN(CCCOc2ccc(S(=O)(=O)NCCCc3c[nH]c4ccc(F)cc34)cc2)CC1` [Example 73, N-(3-(5-fluoro-1H-indol-3-yl)propyl)-4-(3-(4-isobutyrylpiperazin-1-yl)propoxy)benzenesulfonamide] it is 10 to 100 µM; for `O=S(=O)(NCCCc1c[nH]c2ccc(F)cc12)c1ccc(OCCCN2CCN(CC(F)(F)F)CC2)cc1` [Example 74, N-(3-(5-fluoro-1H-indol-3-yl)propyl)-4-(3-(4-(2,2,2-trifluoroethyl)piperazin-1-yl)propoxy)benzenesulfonamide] it is 1 to 10 µM.
For `O=S(=O)(NCCCc1c[nH]c2ccc(Cl)cc12)c1ccc(OCCCN2CCN(CC(F)(F)F)CC2)cc1` [Example 76, N-(3-(5-chloro-1H-indol-3-yl)propyl)-4-(3-(4-(2,2,2-trifluoroethyl)piperazin-1-yl)propoxy)benzenesulfonamide], the IC50 under setting [1] is 1 to 10 µM.
On to `O=S(=O)(NCCCc1c[nH]c2ccc(F)cc12)c1ccc(OCCCN2CCCCC2)cc1` [Example 84, N-(3-(5-fluoro-1H-indol-3-yl)propyl)-4-(3-(piperidin-1-yl)propoxy)benzenesulfonamide], for which, under setting [1], the IC50 was 1 to 10 µM.
As for `CN1CCN(CCCOc2ccc(S(=O)(=O)NC3CCCC(c4c[nH]c5ccccc45)C3)cc2)CC1` (centres unmarked) [Example 85, N-(3-(1H-indole-3-yl)cyclohexyl)-4-(3-(4-methylpiperazine-1-yl)propoxy)benzenesulfonamide], the IC50 under setting [1] lay within 10 to 100 µM.
Regarding `O=S(=O)(NCCCc1c[nH]c2ccc(Cl)cc12)c1ccc(OCCCN2CCCCC2)cc1` [Example 87, N-(3-(5-chloro-1H-indol-3-yl)propyl)-4-(3-(piperidin-1-yl)propoxy)benzenesulfonamide], the IC50 by setting is: (Table 2, read-out: concentration at which Pin1 inhibitory activity was exhibited) below 1 µM; under setting [1], below 1 µM.
Take `CN1CCN(CCCOc2ccc(S(=O)(=O)Nc3cccc(-c4c[nH]c5ccccc45)c3)cc2)CC1` [Example 89, N-(3-(1H-indole-3-yl)phenyl)-4-(3-(4-methylpiperazine-1-yl)propoxy)benzenesulfonamide]: under setting [1], the IC50 fell in the range of 10 to 100 µM.
On the same count and under the same terms, the figure for `O=S(=O)(NCCCc1c[nH]c2ccc(Cl)cc12)c1cccc(OCCCC2CCNCC2)c1` [Example 94, N-(3-(5-chloro-1H-indol-3-yl)propyl)-3-(3-(piperidin-4-yl)propoxy)benzenesulfonamide] is 1 to 10 µM; for `O=S(=O)(NCCCc1c[nH]c2ccc(Cl)cc12)c1cccc(OCCCN2CCNCC2)c1` [Example 96, N-(3-(5-chloro-1H-indol-3-yl)propyl)-3-(3-(piperazin-1-yl)propoxy)benzenesulfonamide] it is 1 to 10 µM.
The same measure, in the same setting: the figure for `O=S(=O)(NCCCc1c[nH]c2ccc(F)cc12)c1ccc(OCCCC2CCNCC2)cc1` [Example 97, N-(3-(5-fluoro-1H-indol-3-yl)propyl)-4-(3-(piperidin-4-yl)propoxy)benzenesulfonamide] is 1 to 10 µM.
